Measurements as given in patent publication US9328122B2, “7-substituted Hanfangichin B derivative, and preparation method and use thereof” (HANGZHOU BENSHENG PHARMACEUTICAL CO., LTD., priority 2012, dated 2016).
In brackets after ≈: the same amount, converted by molar mass.

What was measured:
[1] = system: K562/ADR (K562adr, drug-resistant chronic myeloid leukemia) cells; assay: MTT cell growth inhibition, leukemia cells; assay type: cell-based; conditions: Homo sapiens, K562/ADR, 72 h, MTT
In short: (§1)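 Growth inhibition is assessed by MTT after leukemia cells, plated at 6000 per well in RPMI-1640 containing 10% fetal bovine serum, are exposed for 72 hours to graded compound concentrations added the day after plating.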

[2] = system: NB4 (acute promyelocytic leukemia) cells; assay: MTT cell growth inhibition, leukemia cells; assay type: cell-based; conditions: Homo sapiens, NB4, 72 h, MTT
In short: as §1

[3] = system: H9 (acute lymphoblastic leukemia) cells; assay: MTT cell growth inhibition, leukemia cells; assay type: cell-based, human; conditions: Homo sapiens, H9, 72 h, MTT
In short: as §1

[4] = system: Jurkat (acute lymphoblastic leukemia) cells; assay: MTT cell growth inhibition, leukemia cells; assay type: cell-based, human; conditions: Homo sapiens, Jurkat, 72 h, MTT
In short: as §1

[5] = system: Kasumi-1 (acute myeloid leukemia M2 type) cells; assay: MTT cell growth inhibition, leukemia cells; assay type: cell-based, human; conditions: Homo sapiens, Kasumi-1, 72 h, MTT
In short: as §1

[6] = system: RPMI 8226 (multiple myeloma) cells; assay: MTT cell growth inhibition, multiple myeloma cells; assay type: cell-based, human; conditions: Homo sapiens, RPMI 8226, 72 h, MTT
In short: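 Viable-cell readout by MTT after 72 h exposure (37° C, 5% CO2) of RPMI 8226 cells to a range of compound concentrations, added one day post-seeding. Cells were seeded at 6000 per well in RPMI-1640 containing 10% FBS.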

[7] = system: CNE (nasopharyngeal carcinoma) cells; assay: MTT cell growth inhibition, solid tumor cells; assay type: cell-based, human
In short: (§2)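 Cells are plated at 6000 per well in 10% FBS/DMEM high glucose and left 24 h at 37 °C. Derivatives at several concentrations are mixed in, and after 72 h further incubation the MTT method gives viable cell concentration.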

[8] = system: CaEs-17 (esophageal cancer) cells; assay: MTT cell growth inhibition, solid tumor cells; assay type: cell-based, human; conditions: Homo sapiens, CaEs17, CaEs-17, 72 h, MTT
In short: as §2

[9] = system: PANC-1 (pancreatic cancer) cells; assay: MTT cell growth inhibition, solid tumor cells; assay type: cell-based, human; conditions: Homo sapiens, PANC-1, 72 h, MTT
In short: as §2

[10] = system: PC-3 (prostate cancer) cells; assay: MTT cell growth inhibition, solid tumor cells; assay type: cell-based, human; conditions: Homo sapiens, PC-3, 72 h, MTT
In short: as §2

[11] = system: SK-OV-3 (ovarian cancer) cells; assay: MTT cell growth inhibition, solid tumor cells; assay type: cell-based, human; conditions: Homo sapiens, SK-OV-3, 72 h, MTT
In short: as §2

[12] = system: Becap-37 (human breast cancer) cells; assay: MTT cell growth inhibition, solid tumor cells; assay type: cell-based; conditions: Homo sapiens, Becap-37, 72 h, MTT
In short: as §2

[13] = system: Hela (human cervical cancer) cells; assay: MTT cell growth inhibition, solid tumor cells; assay type: cell-based; conditions: Homo sapiens, Hela, 72 h, MTT
In short: as §2

[14] = system: Hep G2 (human liver cancer) cells; assay: MTT cell growth inhibition, solid tumor cells; assay type: cell-based; conditions: Homo sapiens, HepG2, Hep G2, 72 h, MTT
In short: as §2

[15] = system: MG-63 (osteosarcoma) cells; assay: MTT cell growth inhibition, solid tumor cells; assay type: cell-based; conditions: Homo sapiens, MG-63, 72 h, MTT
In short: as §2

[16] = system: RKO (human colon adenocarcinoma) cells; assay: MTT cell growth inhibition, solid tumor cells; assay type: cell-based; conditions: Homo sapiens, RKO, 72 h, MTT
In short: as §2

[17] = system: U87-MG (malignant glioma) cells; assay: MTT cell growth inhibition, solid tumor cells; assay type: cell-based; conditions: Homo sapiens, U-87 MG, U87-MG, 72 h, MTT
In short: as §2

tumor = assay: Antitumor activity compared with fangchinoline, overall statement; assay type: cell-based; conditions: tumor type not specified

`COc1ccc2cc1Oc1ccc(cc1)C[C@H]1c3cc(c(OC)cc3CCN1C)Oc1c(OCC(O)CN3CCN(C#N)CC3)c(OC)cc3c1[C@H](C2)N(C)CC3` (stereo partly drawn) [BS-FC-421] was tested. Which IC50 ([1]; read-out: IC50) did it give?
Its IC50 is 0.21 µg/mL (≈ 0.271 µM).

What about the IC90 ([1]; read-out: IC90) of the same molecule?
Its IC90 is 1.43 µg/mL (≈ 1.84 µM).

And the IC50 ([2]; read-out: IC50)?
Its IC50 is 0.61 µg/mL (≈ 0.786 µM).

What about the IC90 ([2]; read-out: IC90) of the same molecule?
Its IC90 is 1.61 µg/mL (≈ 2.07 µM).

And the IC50 ([3]; read-out: IC50)?
The IC50 was 1 µg/mL (≈ 1.29 µM).

What about the IC90 ([3]; read-out: IC90) of the same molecule?
The IC90 was 2.8 µg/mL (≈ 3.61 µM).

And the IC50 ([4]; read-out: IC50)?
Its IC50 is 0.97 µg/mL (≈ 1.25 µM).

What about the IC90 ([4]; read-out: IC90) of the same molecule?
Its IC90 is 3.79 µg/mL (≈ 4.88 µM).

And the IC50 ([5]; read-out: IC50)?
Its IC50 is 0.95 µg/mL (≈ 1.22 µM).

And the IC90 ([5]; read-out: IC90)?
Its IC90 is 2.55 µg/mL (≈ 3.29 µM).

What about the IC50 ([6]; read-out: IC50) of the same molecule?
The IC50 was < 0.125 µg/mL.

And the IC90 ([6]; read-out: IC90)?
The IC90 was 0.25 µg/mL (≈ 0.322 µM).

What about the IC50 ([7]; Homo sapiens, CNE, 72 h, MTT, read-out: IC50) of the same molecule?
The IC50 was 0.87 µg/mL (≈ 1.12 µM).

And the IC90 ([7]; Homo sapiens, CNE, 72 h, MTT, read-out: IC90)?
Its IC90 is 3.87 µg/mL (≈ 4.99 µM).

And the “anti-CNE activity increase over fangchinoline” value ([7]; relative to fangchinoline, Table 2)?
Its value is ~3 fold.

And the IC50 ([8]; read-out: IC50)?
Its IC50 is 0.88 µg/mL (≈ 1.13 µM).

What about the IC90 ([8]; read-out: IC90) of the same molecule?
Its IC90 is 9.43 µg/mL (≈ 12.2 µM).

And the IC50 ([9]; read-out: IC50)?
The IC50 was 2.96 µg/mL (≈ 3.81 µM).

What about the IC90 ([9]; read-out: IC90) of the same molecule?
The IC90 was 7.01 µg/mL (≈ 9.03 µM).

And the IC50 ([10]; read-out: IC50)?
The IC50 was 2.72 µg/mL (≈ 3.51 µM).

And the IC90 ([10]; read-out: IC90)?
The IC90 was 6.07 µg/mL (≈ 7.82 µM).

And the IC50 ([11]; read-out: IC50)?
Its IC50 is 2.36 µg/mL (≈ 3.04 µM).

What about the IC90 ([11]; read-out: IC90) of the same molecule?
The IC90 was 11 µg/mL (≈ 14.2 µM).

What about the IC50 ([12]; read-out: IC50) of the same molecule?
Its IC50 is 1.15 µg/mL (≈ 1.48 µM).

What about the IC90 ([12]; read-out: IC90) of the same molecule?
Its IC90 is 3.96 µg/mL (≈ 5.1 µM).

And the IC50 ([13]; read-out: IC50)?
The IC50 was 0.88 µg/mL (≈ 1.13 µM).

What about the IC90 ([13]; read-out: IC90) of the same molecule?
Its IC90 is 2.78 µg/mL (≈ 3.58 µM).

And the IC50 ([14]; read-out: IC50)?
The IC50 was 1.16 µg/mL (≈ 1.49 µM).

What about the IC90 ([14]; read-out: IC90) of the same molecule?
The IC90 was 3.25 µg/mL (≈ 4.19 µM).

And the IC50 ([15]; read-out: IC50)?
Its IC50 is 1.6 µg/mL (≈ 2.06 µM).

And the IC90 ([15]; read-out: IC90)?
The IC90 was 2.4 µg/mL (≈ 3.09 µM).

And the IC50 ([16]; read-out: IC50)?
Its IC50 is 0.61 µg/mL (≈ 0.786 µM).

What about the IC90 ([16]; read-out: IC90) of the same molecule?
Its IC90 is 2.33 µg/mL (≈ 3 µM).

What about the IC50 ([17]; read-out: IC50) of the same molecule?
The IC50 was 1.05 µg/mL (≈ 1.35 µM).

And the IC90 ([17]; read-out: IC90)?
Its IC90 is 2.75 µg/mL (≈ 3.54 µM).

What about the “antitumor activity compared with that of fangchinoline” value (tumor) of the same molecule?
The value was “significantly superior”.
